Entries after “also recorded” stand apart in the source; their conditions may differ.
Experiments:
[1] = biological target: T1, GABAA receptor containing GABRG2(R43Q) (Homo sapiens, UniProt P14867+P18507+P47870, R82Q/T120M/T181S); experiment: GABA electrophysiological response in Xenopus oocytes, GABRG2(R43Q); format: cell-based; settings: oocytes expressing GABRG2 or GABRG2(R43Q)
T1 construct: expressed in transfected cells; host or cells: Xenopus laevis oocytes (cRNA injection)
T1 sequence (P14867 28-456): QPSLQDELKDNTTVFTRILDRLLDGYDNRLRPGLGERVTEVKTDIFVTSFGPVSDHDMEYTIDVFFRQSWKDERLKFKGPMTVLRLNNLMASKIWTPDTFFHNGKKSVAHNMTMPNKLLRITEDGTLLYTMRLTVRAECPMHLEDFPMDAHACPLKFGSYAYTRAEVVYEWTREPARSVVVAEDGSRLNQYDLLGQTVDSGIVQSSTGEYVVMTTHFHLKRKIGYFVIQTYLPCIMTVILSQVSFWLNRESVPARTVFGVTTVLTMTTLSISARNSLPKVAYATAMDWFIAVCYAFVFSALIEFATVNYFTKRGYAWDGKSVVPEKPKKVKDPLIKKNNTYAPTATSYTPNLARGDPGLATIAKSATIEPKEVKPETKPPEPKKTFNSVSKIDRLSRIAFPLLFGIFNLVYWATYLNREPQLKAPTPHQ
T1 sequence (P47870 26-512): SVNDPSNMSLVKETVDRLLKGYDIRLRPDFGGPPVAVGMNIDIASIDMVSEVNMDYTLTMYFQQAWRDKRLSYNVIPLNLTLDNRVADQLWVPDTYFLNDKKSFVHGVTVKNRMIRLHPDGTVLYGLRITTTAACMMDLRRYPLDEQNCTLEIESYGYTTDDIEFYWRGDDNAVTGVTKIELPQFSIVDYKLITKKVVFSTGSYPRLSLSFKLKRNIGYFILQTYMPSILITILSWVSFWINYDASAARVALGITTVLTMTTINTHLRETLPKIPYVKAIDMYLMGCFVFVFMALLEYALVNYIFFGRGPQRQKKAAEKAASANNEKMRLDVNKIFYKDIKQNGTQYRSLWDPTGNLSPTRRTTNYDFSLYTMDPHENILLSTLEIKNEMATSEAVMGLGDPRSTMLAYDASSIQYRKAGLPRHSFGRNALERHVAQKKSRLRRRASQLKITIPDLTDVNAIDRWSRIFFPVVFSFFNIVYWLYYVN
T1 sequence (P18507 40-467 isoform P18507-1 R82Q/T120M/T181S): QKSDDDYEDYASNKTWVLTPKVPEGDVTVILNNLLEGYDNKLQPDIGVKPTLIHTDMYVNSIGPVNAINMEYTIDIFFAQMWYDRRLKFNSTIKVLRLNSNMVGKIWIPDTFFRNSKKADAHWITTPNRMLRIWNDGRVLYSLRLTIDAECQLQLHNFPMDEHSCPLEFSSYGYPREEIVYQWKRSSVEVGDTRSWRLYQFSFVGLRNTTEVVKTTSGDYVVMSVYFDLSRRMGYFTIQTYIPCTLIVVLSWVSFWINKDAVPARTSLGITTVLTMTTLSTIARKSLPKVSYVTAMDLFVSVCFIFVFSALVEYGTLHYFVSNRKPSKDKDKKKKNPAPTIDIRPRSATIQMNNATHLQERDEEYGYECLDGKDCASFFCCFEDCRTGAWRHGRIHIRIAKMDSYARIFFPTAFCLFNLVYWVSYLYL
Protocol: (§1) To test the effects of the GABRG2 mutations on GABAA receptor function, electrophysiological analysis of Xenopus laevis oocytes were conducted. cDNAs encoding the GABRA1, GABRB2 and GABRG2 subunits of the human GABAA receptor were subcloned into pcDNA3.1(+). The c245G→A and c1168C→T mutations were introduced separately into GABRG2 of the human GABAA receptor using the QuickChange site directed mutagenesis kit (Stratagene, La Jolla, Calif.). The oligonucleotide represented by SEQ ID NO:50 (5′ GGATATGACAATAAACTTCAGCCTGATATAGGAGTGAAGCC 3′) was used to incorporate the c245G→A mutation, while the oligonucleotide represented by SEQ ID NO:51 (5′ GCGAATTCATTAAATGGTTGCTGATCTTGGGCG 3′) was used to incorporate the c1168C→T mutation. Successful mutagenesis was identified by DNA sequencing. Wild-type and mutant cDNAs were linearised and gel purified and cRNA was made using the T7 RNA polymerase Message Machine in vitro RNA synthesis kit (Ambion). Samples of cRNA were run on denaturing agarose gels to ensure they were the correct size and were not degraded. Xenopus laevis oocytes (stage V or VI) were microinjected with ˜25 ng of cRNA representing the GABAA subunits. A tenfold molar excess of wild-type and mutant GABRG2 was used to promote assembly of the ternary (GABRA1:GABRB2:GABRG2) rather than binary (GABRA1:GABRB2) complex. […]

[2] = biological target: T2, GABRA1:GABRB2:GABRG2 wild-type GABAA receptor (Homo sapiens, UniProt P14867+P18507+P47870); experiment: GABA current response in Xenopus laevis oocytes, wild-type GABRG2; format: cell-based; settings: 1:1:10 ratio with wild-type GABRG2
T2 construct: expressed in transfected cells; host or cells: Xenopus laevis oocytes (cRNA injection)
Protocol: as §1

[3] = test system: GABRA1:GABRB2:GABRG2(Q351X) GABAA receptor; experiment: GABA current response in Xenopus laevis oocytes, Q351X mutant; format: cell-based, human; settings: 1:1:10 GABRA1:GABRB2:GABRG2(Q351X) cRNA injection ratio
Protocol: as §1

[4] = biological target: T3, GABRA1:GABRB2 GABAA receptor (Homo sapiens, UniProt P14867+P47870); experiment: GABA current response in Xenopus laevis oocytes, GABRA1:GABRB2:water; format: cell-based; settings: 1:1:10 GABRA1:GABRB2:water injection ratio
T3 construct: expressed in transfected cells; host or cells: Xenopus laevis oocytes (cRNA injection)
T3 sequence (P14867 28-456): T1 sequence (P14867 28-456)
T3 sequence (P47870 26-512): T1 sequence (P47870 26-512)
Protocol: as §1

[5] = biological target: T4, wild-type (α1β2γ2) GABAA receptor (Homo sapiens, UniProt P14867+P18507+P47870); set-up: expressed in transfected cells; settings: correct assembly of GABRA1, GABRB2 and GABRG2; Draguhn et al, 1990; cited from earlier work
[6] = biological target: T5, GABRA1 and GABRB2 (α1β2) GABAA receptor (Homo sapiens, UniProt P14867+P47870); experiment: Zn2+ sensitivity of GABA-activated currents in Xenopus laevis oocytes, GABRA1 and GABRB2 alone; format: cell-based; set-up: expressed in transfected cells; host or cells: Xenopus laevis oocytes (cRNA injection)
T5 sequence (P14867 28-456): T1 sequence (P14867 28-456)
T5 sequence (P47870 26-512): T1 sequence (P47870 26-512)
Protocol: as §1

[7] = biological target: T4, wild-type (α1β2γ2) GABAA receptor; experiment: Zn2+ sensitivity of GABA-activated currents in Xenopus laevis oocytes, wild-type channels; format: cell-based; set-up: expressed in transfected cells; host or cells: Xenopus laevis oocytes (cRNA injection); settings: Zn2+ 10 μM, n=9
Protocol: as §1

[8] = biological target: T6, mutant [α1β2γ2 (R43Q)] GABAA receptor (Homo sapiens, UniProt P14867+P18507+P47870, R82Q/T120M/T181S); experiment: Zn2+ sensitivity of GABA-activated currents in Xenopus laevis oocytes, R43Q mutant channels; format: cell-based
T6 construct: expressed in transfected cells; host or cells: Xenopus laevis oocytes (cRNA injection)
T6 sequence (P14867 28-456): T1 sequence (P14867 28-456)
T6 sequence (P47870 26-512): T1 sequence (P47870 26-512)
T6 sequence (P18507 40-467 isoform P18507-1 R82Q/T120M/T181S): T1 sequence (P18507 40-467 isoform P18507-1 R82Q/T120M/T181S)
Protocol: as §1

[9] = biological target: T5, GABRA1 and GABRB2 (α1β2) GABAA receptor; set-up: expressed in transfected cells; settings: GABRA1 and GABRB2 alone; Draguhn et al, 1990; cited from earlier work
[10] = biological target: T7, wild-type GABRA1:GABRB2:GABRG2 (α1β2γ2) GABAA receptor (Homo sapiens, UniProt P14867+P18507+P47870); experiment: Diazepam potentiation of GABA currents, two-electrode voltage clamp in Xenopus laevis oocytes, wild-type channels; format: cell-based; settings: GABA 1 μM, diazepam 1 μM
T7 construct: expressed in transfected cells; host or cells: Xenopus laevis oocytes (cRNA injection)
Protocol: as §1, with “The oligonucleotide represented by SEQ ID NO:50 (5′ GGATATGACAATAAACTTCAGCCTGATATAGGAGTGAAGCC 3′) was used to incorporate the c245G→A mutation, while the oligonucleotide represented by SEQ ID NO:51 (5′ GCGAATTCATTAAATGGTTGCTGATCTTGGGCG 3′) was used to incorporate the c1168C→T mutation.” left out, “complex. Oocytes were then stored in OR2 buffer (82.5 mM NaCl, 2 mM KCl, 1 mM MgCl2, 5 mM HEPES, pH 7.5, supplemented with 2% foetal bovine serum, 100 U/ml penicillin, 100 μg/ml streptomycin, Life Technologies) and incubated at 18° C. for three to five days to allow for adequate receptor expression.” for “complex.”

[11] = biological target: T8, mutant GABRA1:GABRB2:GABRG2(R43Q) [α1β2γ2 (R43Q)] GABAA receptor (Homo sapiens, UniProt P14867+P18507+P47870, R82Q/T120M/T181S); experiment: Diazepam potentiation of GABA currents, two-electrode voltage clamp in Xenopus laevis oocytes, R43Q mutant channels; format: cell-based; settings: for small, insignificant decrease in GABA current with diazepam, mean±SEM: GABA 1 μM, diazepam 1 μM, R43Q mutant channels, n=17, a decrease, not a potentiation
T8 construct: expressed in transfected cells; host or cells: Xenopus laevis oocytes (cRNA injection)
T8 sequence (P14867 28-456): T1 sequence (P14867 28-456)
T8 sequence (P47870 26-512): T1 sequence (P47870 26-512)
T8 sequence (P18507 40-467 isoform P18507-1 R82Q/T120M/T181S): T1 sequence (P18507 40-467 isoform P18507-1 R82Q/T120M/T181S)
Protocol: (§2) To test the effects of the GABRG2 mutations on GABAA receptor function, electrophysiological analysis of Xenopus laevis oocytes were conducted. cDNAs encoding the GABRA1, GABRB2 and GABRG2 subunits of the human GABAA receptor were subcloned into pcDNA3.1(+). The c245G→A and c1168C→T mutations were introduced separately into GABRG2 of the human GABAA receptor using the QuickChange site directed mutagenesis kit (Stratagene, La Jolla, Calif.). […] Successful mutagenesis was identified by DNA sequencing. Wild-type and mutant cDNAs were linearised and gel purified and cRNA was made using the T7 RNA polymerase Message Machine in vitro RNA synthesis kit (Ambion). Samples of cRNA were run on denaturing agarose gels to ensure they were the correct size and were not degraded. Xenopus laevis oocytes (stage V or VI) were microinjected with ˜25 ng of cRNA representing the GABAA subunits. A tenfold molar excess of wild-type and mutant GABRG2 was used to promote assembly of the ternary (GABRA1:GABRB2:GABRG2) rather than binary (GABRA1:GABRB2) complex. Oocytes were then stored in OR2 buffer (82.5 mM NaCl, 2 mM KCl, 1 mM MgCl2, 5 mM HEPES, pH 7.5, supplemented with 2% foetal bovine serum, 100 U/ml penicillin, 100 μg/ml streptomycin, Life Technologies) and incubated at 18° C. for three to five days to allow for adequate receptor expression. Current recordings from oocytes were made using a two-electrode voltage clamp (AxoClamp 2B, Axon Instruments), with recordings made at a holding potential of −80 mV. Electrodes were filled with 3 M KCl and were of 1–2 MΩ resistance. Oocytes were continuously perfused with ND96 solution (96 mM NaCl, 2 mM KCl, 1 mM MgCl2, 1.8 mM BaCl2 and 5 mM HEPES, pH 7.5). gamma-Aminobutyric acid (GABA; Sigma-Aldrich, Australia) was applied by bath perfusion.

[12] = test system: GABAA receptor from 50:50 mixture of GABRG2 and GABRG2(R43Q); experiment: Diazepam potentiation in oocytes injected with 50:50 mixture of GABRG2 and GABRG2(R43Q) cRNA; format: cell-based, human; settings: n=8
Protocol: as §2, with “Current recordings from oocytes were made using a two-electrode voltage clamp (AxoClamp 2B, Axon Instruments), with recordings made at a holding potential of −80 mV. Electrodes were filled with 3 M KCl and were of 1–2 MΩ resistance. Oocytes were continuously perfused with ND96 solution (96 mM NaCl, 2 mM KCl, 1 mM MgCl2, 1.8 mM BaCl2 and 5 mM HEPES, pH 7.5). gamma-Aminobutyric acid (GABA; Sigma-Aldrich, Australia) was applied by bath perfusion.” left out

T7 sequence (P18507 40-467 isoform P18507-1 limits assumed, one chain of several): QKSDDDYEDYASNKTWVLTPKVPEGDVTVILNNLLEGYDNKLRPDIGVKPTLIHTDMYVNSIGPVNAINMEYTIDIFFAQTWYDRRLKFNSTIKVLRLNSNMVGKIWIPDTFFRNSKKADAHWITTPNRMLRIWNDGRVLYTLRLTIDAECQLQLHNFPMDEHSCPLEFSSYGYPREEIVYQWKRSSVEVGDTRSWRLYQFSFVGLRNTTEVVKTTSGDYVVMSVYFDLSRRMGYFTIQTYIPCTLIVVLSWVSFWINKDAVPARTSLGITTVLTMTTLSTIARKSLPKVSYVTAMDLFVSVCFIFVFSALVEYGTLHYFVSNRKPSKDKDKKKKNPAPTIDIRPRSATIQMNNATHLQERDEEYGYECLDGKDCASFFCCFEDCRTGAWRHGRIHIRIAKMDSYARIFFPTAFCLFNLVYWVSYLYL
T4 sequence (P18507 40-467 isoform P18507-1 limits assumed, one chain of several): as above
T2 sequence (P18507 40-467 isoform P18507-1 limits assumed, one chain of several): as above

NCCCC(=O)O [GABA, gamma-Aminobutyric acid]
electrophysiological responses to GABA versus wild-type GABRG2 [1]: indistinguishable
current response to GABA [2]: strong current responses
current response to GABA [3]: abolishes responses to GABA; also recorded: no current response
current response to GABA [4]: gave current responses

[Zn+2] [Zn^2+]
sensitivity of currents to Zn2+ [5]: significantly less sensitive
GABA-activated current abolished by Zn2+ ([6]; Zn2+ 10 μM, GABA 100 μM, α1β2 alone, n=8): 89±7%
effect of Zn2+ on GABA-activated currents ([6]; oocytes expressing only GABRA1 and GABRB2): totally abolished
partial inhibition of the GABA current by Zn2+ [7]: 37±2%
effect of Zn2+ compared with wild-type GABRG2 ([8]; GABRG2(R43Q) versus GABRG2 expressing oocytes): same effect
partial inhibition of the GABA current by Zn2+ ([8]; Zn2+ 10 μM, R43Q mutant, n=9): 40±5%
sensitivity of currents to Zn2+ [9]: extremely sensitive

CN1C(=O)CN=C(c2ccccc2)c2cc(Cl)ccc21 [diazepam]
increase of GABA currents by diazepam (potentiation), mean±SEM ([10]; n=20, P<0.01): 303±33%
increase of GABA currents by diazepam (potentiation), mean±SEM ([10]; n=20, P<0.01, listed as Diazepam): 302±33%
small, insignificant decrease in GABA current with diazepam, mean±SEM [11]: 10±6%
small, insignificant decrease in GABA current with diazepam, mean±SEM ([11]; listed as Diazepam): 10%±6
diazepam potentiation ([11]; receptors containing the GABRG2(R43Q) subunit): completely abolished
intermediate diazepam potentiation [12]: 129±30%
